Data as given in PubChem BioAssay (NCI).
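In this assay, cells in 96-well plates receive the compound at five concentrations for 48 hours. Endpoints are linearly interpolated between the surrounding concentrations. GI50 is the concentration that inhibits growth by half. TGI denotes the concentration required for complete inhibition of growth.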

Tests used:
Test in all cases: growth of human tumour cells (NCI), 48 h
MALME-3M melanoma = tested on: MALME-3M melanoma
HCT-116 colon = tested on: HCT-116 colon
HOP-92 NSCLC = tested on: HOP-92 NSCLC
RXF 393 renal = tested on: RXF 393 renal
DU-145 prostate = tested on: DU-145 prostate
MOLT-4 leukemia = tested on: MOLT-4 leukemia
HS 578T breast = tested on: HS 578T breast
SK-MEL-5 melanoma = tested on: SK-MEL-5 melanoma
LOX IMVI melanoma = tested on: LOX IMVI melanoma
SN12C renal = tested on: SN12C renal
HCT-15 colon = tested on: HCT-15 colon
KM12 colon = tested on: KM12 colon
COLO 205 colon = tested on: COLO 205 colon
SK-MEL-2 melanoma = tested on: SK-MEL-2 melanoma
HL-60(TB) leukemia = tested on: HL-60(TB) leukemia
MCF7 breast = tested on: MCF7 breast
NCI-H522 lung = tested on: NCI-H522 lung
SK-MEL-28 melanoma = tested on: SK-MEL-28 melanoma
SNB-19 CNS = tested on: SNB-19 CNS
SK-OV-3 ovarian = tested on: SK-OV-3 ovarian
NCI-H226 lung = tested on: NCI-H226 lung
T-47D breast = tested on: T-47D breast
SF-268 CNS = tested on: SF-268 CNS
A498 renal = tested on: A498 renal
SW-620 colon = tested on: SW-620 colon
OVCAR-3 ovarian = tested on: OVCAR-3 ovarian
OVCAR-8 ovarian = tested on: OVCAR-8 ovarian
NCI-H23 lung = tested on: NCI-H23 lung
PC-3 prostate = tested on: PC-3 prostate

Molecule COc1cc(OC)c(/C=C/c2cc[n+](C)c3ccccc23)c(OC)c1 has a TGI (MALME-3M melanoma) of 8.04 µM, a GI50 (HCT-116 colon) of 1.27 µM and a TGI (HCT-116 colon) of 33.7 µM. For the same molecule, the GI50 (HOP-92 NSCLC) was 1.42 µM, the TGI (HOP-92 NSCLC) was 4.7 µM and the GI50 (RXF 393 renal) was 2.66 µM. It also gave a TGI (RXF 393 renal) of 19.2 µM, a GI50 (DU-145 prostate) of 2.47 µM and a TGI (DU-145 prostate) of 15.5 µM. It also gave a GI50 (MOLT-4 leukemia) of 3.19 µM, a TGI (MOLT-4 leukemia) of 33.9 µM and a GI50 (HS 578T breast) of 1.48 µM. It also gave a TGI (HS 578T breast) of 12.4 µM, a GI50 (SK-MEL-5 melanoma) of 0.928 µM and a TGI (SK-MEL-5 melanoma) of 2.39 µM. The GI50 (LOX IMVI melanoma) was 1.29 µM, the TGI (LOX IMVI melanoma) was 3.15 µM and the GI50 (SN12C renal) was 1.05 µM. For the same molecule, the TGI (SN12C renal) was 13 µM, the GI50 (HCT-15 colon) was 23.3 µM and the TGI (HCT-15 colon) was greater than 100 µM. For the same molecule, the GI50 (KM12 colon) was 1.41 µM, the TGI (KM12 colon) was 3.95 µM and the GI50 (COLO 205 colon) was 1.23 µM. It also gave a TGI (COLO 205 colon) of 2.9 µM, a GI50 (SK-MEL-2 melanoma) of 2.66 µM and a TGI (SK-MEL-2 melanoma) of 6.32 µM. For the same molecule, the GI50 (HL-60(TB) leukemia) was 1.33 µM, the TGI (HL-60(TB) leukemia) was 8.58 µM and the GI50 (MCF7 breast) was 2.7 µM. For the same molecule, the TGI (MCF7 breast) was greater than 100 µM, the GI50 (NCI-H522 lung) was 1.61 µM and the TGI (NCI-H522 lung) was 6.34 µM. It also gave a GI50 (SK-MEL-28 melanoma) of 2.3 µM, a TGI (SK-MEL-28 melanoma) of 9.77 µM and a GI50 (SNB-19 CNS) of 0.795 µM. The TGI (SNB-19 CNS) was 15.4 µM, the GI50 (SK-OV-3 ovarian) was 3.32 µM and the TGI (SK-OV-3 ovarian) was 17.5 µM. It also gave a GI50 (NCI-H226 lung) of 1.99 µM, a TGI (NCI-H226 lung) of 17.3 µM and a GI50 (T-47D breast) of 1.72 µM. For the same molecule, the TGI (T-47D breast) was 33.7 µM, the GI50 (SF-268 CNS) was 0.691 µM and the TGI (SF-268 CNS) was 12.8 µM. It also gave a GI50 (A498 renal) of 1.24 µM, a TGI (A498 renal) of 6.04 µM and a GI50 (SW-620 colon) of 2.56 µM. The TGI (SW-620 colon) was 16.9 µM, the GI50 (OVCAR-3 ovarian) was 1.68 µM and the TGI (OVCAR-3 ovarian) was 7.35 µM. It also gave a GI50 (OVCAR-8 ovarian) of 1.62 µM, a TGI (OVCAR-8 ovarian) of 10.2 µM and a GI50 (NCI-H23 lung) of 1.74 µM. The TGI (NCI-H23 lung) was 17.3 µM, the GI50 (PC-3 prostate) was 1.68 µM and the TGI (PC-3 prostate) was 12.6 µM.
